Experiments:
Test in all cases: GC-MS of reaction products
Type in all cases: biochemical
Settings in all cases: 2.5 uM GDP, HEPES pH 7.4, 0.1 M KCl, 10 mM MgCl2, 10 mM DTT, 10% glycerol, 30 °C, 1 h
[1] = target: T1, PbTPS3 (Phalaenopsis bellina, UniProt A0A8F9U8Q4)
T1 construct: gene TPS3; ORF in pET-28b, His-tag at N- and C-termini, E. coli C41 (DE3) pLysS, TALON purified; tag removal not mentioned
T1 sequence (A0A8F9U8Q4 1-769): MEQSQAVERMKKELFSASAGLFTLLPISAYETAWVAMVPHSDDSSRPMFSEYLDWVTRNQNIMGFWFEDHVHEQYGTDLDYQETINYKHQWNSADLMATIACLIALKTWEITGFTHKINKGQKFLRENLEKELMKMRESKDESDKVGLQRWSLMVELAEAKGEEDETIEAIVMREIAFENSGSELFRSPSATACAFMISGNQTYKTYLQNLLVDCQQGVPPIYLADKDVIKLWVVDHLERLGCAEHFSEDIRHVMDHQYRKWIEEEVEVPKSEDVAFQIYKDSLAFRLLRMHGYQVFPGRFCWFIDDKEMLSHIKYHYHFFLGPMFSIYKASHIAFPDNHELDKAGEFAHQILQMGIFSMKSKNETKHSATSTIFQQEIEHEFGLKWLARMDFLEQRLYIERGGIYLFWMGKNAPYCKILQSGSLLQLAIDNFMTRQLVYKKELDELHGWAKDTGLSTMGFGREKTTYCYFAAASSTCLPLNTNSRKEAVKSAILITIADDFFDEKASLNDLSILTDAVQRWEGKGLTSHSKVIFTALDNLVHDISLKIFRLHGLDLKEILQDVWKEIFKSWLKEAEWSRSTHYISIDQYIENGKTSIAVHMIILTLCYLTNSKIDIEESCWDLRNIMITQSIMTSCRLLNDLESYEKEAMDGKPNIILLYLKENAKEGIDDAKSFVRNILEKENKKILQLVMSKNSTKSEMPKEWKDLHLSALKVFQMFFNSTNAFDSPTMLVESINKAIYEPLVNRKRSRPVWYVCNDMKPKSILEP

[2] = target: T2, PbTPS4 (Phalaenopsis bellina, UniProt A0A8F9U8Q1)
T2 construct: gene TPS4; ORF in pET-28b, His-tag at N- and C-termini, E. coli C41 (DE3) pLysS, TALON purified; tag removal not mentioned
T2 sequence (A0A8F9U8Q1 1-868): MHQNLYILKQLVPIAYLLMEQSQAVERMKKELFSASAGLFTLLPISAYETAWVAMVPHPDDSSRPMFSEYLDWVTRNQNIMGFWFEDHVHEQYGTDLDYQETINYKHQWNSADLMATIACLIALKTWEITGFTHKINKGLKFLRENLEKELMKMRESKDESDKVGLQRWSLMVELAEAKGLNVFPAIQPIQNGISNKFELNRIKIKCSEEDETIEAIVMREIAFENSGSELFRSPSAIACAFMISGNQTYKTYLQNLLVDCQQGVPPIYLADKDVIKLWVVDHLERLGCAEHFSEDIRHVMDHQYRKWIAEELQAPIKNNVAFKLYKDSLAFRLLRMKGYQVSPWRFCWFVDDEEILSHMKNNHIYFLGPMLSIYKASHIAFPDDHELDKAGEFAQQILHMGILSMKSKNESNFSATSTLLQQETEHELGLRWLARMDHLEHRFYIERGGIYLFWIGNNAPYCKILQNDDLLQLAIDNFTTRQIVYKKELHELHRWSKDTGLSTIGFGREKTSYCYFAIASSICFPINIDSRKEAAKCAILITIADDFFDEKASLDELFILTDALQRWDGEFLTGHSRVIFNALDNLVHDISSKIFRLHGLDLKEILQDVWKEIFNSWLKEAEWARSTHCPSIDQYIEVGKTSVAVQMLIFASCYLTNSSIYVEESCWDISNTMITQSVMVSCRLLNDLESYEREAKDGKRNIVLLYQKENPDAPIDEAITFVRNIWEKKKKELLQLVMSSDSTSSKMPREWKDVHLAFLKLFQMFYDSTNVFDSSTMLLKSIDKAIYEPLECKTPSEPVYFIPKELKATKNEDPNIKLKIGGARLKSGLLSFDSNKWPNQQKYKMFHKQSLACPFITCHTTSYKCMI

[3] = target: T3, PbTPS5 (Phalaenopsis bellina, UniProt A0A8F9UAD9)
T3 construct: gene TPS5; tag removal not mentioned
T3 sequence (A0A8F9UAD9 1-605 limits assumed): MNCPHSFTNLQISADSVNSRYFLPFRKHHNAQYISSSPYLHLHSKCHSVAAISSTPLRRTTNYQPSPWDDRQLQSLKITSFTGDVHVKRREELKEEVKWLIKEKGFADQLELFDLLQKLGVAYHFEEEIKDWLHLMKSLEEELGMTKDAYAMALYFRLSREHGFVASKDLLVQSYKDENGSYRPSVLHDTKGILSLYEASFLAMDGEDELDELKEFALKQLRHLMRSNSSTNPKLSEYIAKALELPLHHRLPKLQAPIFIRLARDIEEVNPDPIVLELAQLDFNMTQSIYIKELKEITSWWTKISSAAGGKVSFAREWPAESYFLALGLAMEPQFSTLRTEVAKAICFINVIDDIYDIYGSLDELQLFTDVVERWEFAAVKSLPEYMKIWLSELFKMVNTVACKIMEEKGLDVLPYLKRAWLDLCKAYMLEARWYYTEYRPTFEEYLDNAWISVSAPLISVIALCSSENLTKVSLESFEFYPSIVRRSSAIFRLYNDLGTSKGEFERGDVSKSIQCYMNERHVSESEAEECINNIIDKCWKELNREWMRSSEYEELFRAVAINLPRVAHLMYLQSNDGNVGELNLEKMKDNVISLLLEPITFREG

[4] = target: T4, PbTPS9 (Phalaenopsis bellina, UniProt A0A8F9U9F3)
T4 construct: gene TPS9; ORF in pET-28b, His-tag at N- and C-termini, E. coli C41 (DE3) pLysS, TALON purified; tag removal not mentioned
T4 sequence (A0A8F9U9F3 1-598 limits assumed): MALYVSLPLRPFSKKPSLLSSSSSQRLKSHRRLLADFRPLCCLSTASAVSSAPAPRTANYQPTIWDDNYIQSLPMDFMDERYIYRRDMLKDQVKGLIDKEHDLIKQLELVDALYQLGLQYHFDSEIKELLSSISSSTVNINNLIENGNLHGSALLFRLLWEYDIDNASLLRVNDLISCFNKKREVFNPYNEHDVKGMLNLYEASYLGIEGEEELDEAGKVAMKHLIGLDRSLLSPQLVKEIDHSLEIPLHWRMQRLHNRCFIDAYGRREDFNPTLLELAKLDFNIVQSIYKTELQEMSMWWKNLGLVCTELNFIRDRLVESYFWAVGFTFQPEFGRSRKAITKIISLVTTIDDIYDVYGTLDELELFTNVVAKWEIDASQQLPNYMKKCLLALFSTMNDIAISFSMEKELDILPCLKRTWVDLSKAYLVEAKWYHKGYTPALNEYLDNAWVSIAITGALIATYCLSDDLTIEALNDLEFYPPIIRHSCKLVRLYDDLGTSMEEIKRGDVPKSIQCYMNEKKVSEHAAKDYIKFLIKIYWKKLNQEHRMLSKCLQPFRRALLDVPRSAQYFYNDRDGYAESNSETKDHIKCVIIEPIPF

For CC(C)=CCC/C(C)=C/COP(=O)(O)OP(=O)(O)O [GDP], the “GC-MS of reaction products” value [1] was “PbTPS3 was a dual enzyme as a linalool/(β)-cis-ocimene synthase (Figure 6A)”, the “GC-MS of reaction products” value [2] was “PbTPS4 was a linalool synthase and used GDP as the substrate (Figure 6B)” and the “GC-MS of reaction products” value [3] was “Geraniol was detected as the main product catalyzed by PbTPS5 (Figure 5A)”. The “GC-MS of reaction products” value [4] was “The product of PbTPS9 was geraniol (Figure 5B)”.

Source: PMC8318001, “Terpene Synthase-b and Terpene Synthase-e/f Genes Produce Monoterpenes for Phalaenopsis bellina Floral Scent” (Frontiers in Plant Science, 2021)
